Results: article PMC12734371, “Synthesis, Anti-Tumour, and Antibacterial Activities of Monocarbonyl Curcumin Analogues of Piperidones” (International Journal of Molecular Sciences, 2025)

Tests used:
[1] = test system: L02 cells; experiment: MTT assay, toxicity to human normal liver cells; assay type: cell-based; details: 24 h, mean ± s, n = 3
Method: The cells were passaged to the fourth generation of L02 cells, and the cell suspension containing about 5 × 10^3 cells was added to each well of the 96-well plate and cultured in a cell culture incubator for 24 h. The old medium was discarded, and different concentrations of liquid medicine (6 porous and 3 plates for each concentration) were added and incubated for 24 h. The old medium was discarded, 10% of 5 mg/mL MTT working solution was added in the dark, and the cells were incubated in a cell incubator for 4 h. The old medium was discarded, 100 μL DMSO was added to each well, and 100 RPM was oscillated on an air shaker for 10 min. The OD value was measured at 490 nm with a multifunctional microplate reader. According to the OD value, the inhibition rate of different piperidone monocarbonyl curcumin analogues on L02 cells was calculated according to Formula (1), and IC50 was calculated by Graph Pad Prism 8.0.

[2] = test system: A549 cells; experiment: CCK-8 growth inhibition (dose and time action curves); assay type: cell-based, human; details: different concentrations, 4-72 h
Method: A549 cells in the logarithmic growth phase and in a good growth state were collected. After routine digestion and centrifugation, the cells were diluted with DMEM low-glucose complete medium, suspended in a single cell state, and inoculated in 96-well plates. Each well was inoculated with 100 μL cell suspension containing 5 × 10^3 cells. The 96-well plate was shaken to disperse the cells evenly at the bottom of the cell orifice plate, and the cells were cultured in the cell incubator for 24 h. The old medium was discarded, complete medium containing different concentrations of liquid medicine was added, and the culture continued in the cell culture incubator. At 4, 6, 12, 24, 48, and 72 h, the old medium was discarded and 100 μL of medium containing 10% CCK-8 was added. The medium was placed in the cell incubator and continued to incubate for 2 h. The OD value was measured at 450 nm with an enzyme calibration and the inhibition rate of different compounds at different concentrations was calculated. GraphPad Prism 8.0 was used to plot the inhibition rate of cell growth at different concentrations of the five major compounds. The drug duration curves were plotted with time as the X-axis and inhibition rate as the Y-axis.

[3] = test system: A549 cells; experiment: Cell wound scratch assay (migration); assay type: cell-based, human; details: 6 h; high, medium, and low concentrations
Method: A549 cells in logarithmic phase were digested with 0.25% trypsin and blown to single cell suspension with a dropper. The cell density was adjusted to 5 × 10^5 cells/mL. The cells were inoculated on 6-well plates, 2 mL per well, and cultured in a cell incubator at 37 °C, 5% CO2, and saturated humidity for 24 h until the gaps were basically fused. A 10 μL micro pipette tip was used to scratch vertically in a 6-well plate. After washing with PBS solution 3 times, the drug-containing medium was added, 2 mL per well, and three wells were set in each group. The culture plates were placed in a 5% CO2 incubator at 37 °C for 6 h and 24 h and observed and photographed with an inverted fluorescence microscope. The images were obtained by NIS Elements Viewer 4.2.0, and the scratch area and width were calculated. The cell migration rate was calculated by Formula (2):[Cell migration rate (%) = (0 h scratch area − scratch area at different times)/0 h scratch area × 100%](2)

[4] = test system: MCF-7 cells; experiment: MTT assay, inhibition of tumour cell growth; assay type: cell-based, human; details: 24 h, mean ± s, n = 3
Method: (§1) The tumour cell suspension in logarithmic growth phase, containing about 5 × 10^3 cells, was taken and seeded onto a 96-well plate and gently shaken to disperse the cells evenly at the bottom of the plate. The cells were incubated in a constant temperature (37 °C) incubator for 24 h. The old medium was discarded, and 100 μL of the prepared working solution of piperidinone monocarbonyl curcumin analogues at different concentrations was added, and the cells were incubated in a constant temperature incubator for 24 h. Blank medium wells, blank cell wells, and 0.9% DMSO (highest content) wells were set up, with 6 multi-well and 3 multi-plates for each concentration. The discarded old medium was absorbed, and 100 μL of 10% 5 mg/mL MTT working solution was added to each well (operated away from light) and placed in a cell incubator for further incubation for 4 h. The old medium was discarded, and 100 μL of DMSO was added to each well and shaken in an air shaker at 100 RPM for 10 min. The absorbance of the OD value was measured at 490 nm by a multifunctional microplate analyzer. According to Formula (1), the inhibition rates of different piperidones monocarbonyl curcumin analograms on 4 tumour cells were calculated, and IC50 was calculated by GraphPad Prism 8.0:Inhibition rate (%) = (OD blank cell group − OD administration group)/OD blank cell group(1)

[5] = test system: A549 cells; experiment: MTT assay, inhibition of tumour cell growth; assay type: cell-based, human; details: 24 h, mean ± s
Method: as §1

[6] = test system: HepG2 cells; experiment: MTT assay, inhibition of tumour cell growth; assay type: cell-based, human; details: 24 h, mean ± s, n = 3
Method: as §1

[7] = test system: Hela cells; experiment: MTT assay, inhibition of tumour cell growth; assay type: cell-based, human; details: 24 h, mean ± s, n = 3
Method: as §1

[8] = test system: ERK (extracellular regulated protein kinases); experiment: Western blot, ERK level in A549 cells; assay type: cell-based, human; details: 10, 5, 2.5 μmol/L, 24 h
Method: (§2) A549 cells in logarithmic growth phase were seeded in 6-well plates at 1 × 10^6 cells/mL per well. The cells were cultured overnight in an incubator. Different concentrations of drug-containing medium of 2,5-2Cl, 2Br-5Cl, 2-Cl, 2-F, benzaldehyde ([…]), curcumin (20 μmol/L), and cisplatin (30 μmol/L) were added, and the blank control […] The RIPA cell lysis buffer containing protease inhibitors was added to the Petri dish to collect the proteins of each experimental group, and the supernatant was collected as a protein sample after ultrasonic centrifugation. Protein quantification was performed by the BCA method. A total of 20 μg protein was separated by 10% SDS-PAGE, and then the protein was transferred to a PVDF membrane. The membrane was blocked with 5% skim milk for 1 h, and the corresponding primary antibody was incubated at 4 °C overnight. After washing the membrane three times with TBST, the bands were incubated with the corresponding secondary antibodies at room temperature for 1 h. After cleaning the membrane with TBST 3 times, the darkroom was developed with ECL luminescence. Using GAPDH as an internal reference, the protein bands were analyzed by ImageJ 1.8.0.

[9] = test system: AKT (protein kinase B); experiment: Western blot, AKT level in A549 cells; assay type: cell-based, human; details: 10, 5, 2.5 μmol/L, 24 h
Method: as §2

[10] = test system: A549 cells; experiment: Flow cytometry apoptosis (Annexin V/PI); assay type: cell-based, human; details: 24 h; 5, 2.5, 1.25 μmol/L
Method: The A549 cells in logarithmic growth phase were inoculated in 6-well plates at 1 × 10^6 cells. After resting in the incubator for 24 h, the cells were treated with different concentrations of drugs. The blank control group was added with the medium with the highest concentration of DMSO. After 24 h of culture, cells were collected, washed with PBS, transferred to a flow tube, and resuspended with 100 μL of 1 × Annexin V conjugate. Add 4 μL YF4/88-Annexin N and 5 μL PI working solution. The cells were incubated in the dark at room temperature for 10 min, transferred to a flow cytometer tube, added with 200 μL of 1 × Annexin V conjugate, and immediately detected by flow cytometry.

[11] = test system: A549 cells; experiment: Cell morphology by inverted microscope; assay type: cell-based, human; details: 5 μmol/L, 24 h
Method: The cells were inoculated in a 6-well plate, and about 1 × 10^6 A549 cells in the logarithmic growth phase were inoculated in each well. After the cells were cultured in a constant temperature incubator for 24 h, the old medium was discarded, and five kinds of piperidone monocarbonyl curcumin analogue solution (5, 10, and 20 μmol/L), curcumin (10, 20, and 40 μmol/L), and 0.9% DMSO were added as the blank control group for 24 h, and then the cell morphology was observed by inverted microscope (200×).

Row | Compound | IC50 [1] [µM] | Inhibition of A549 cell growth (CCK-8) [2] | Cell migration rate vs blank control (0.9% DMSO) [3] | IC50 [4] [µM] | IC50 ([5]; n = 3) [µM] | IC50 ([5]; n = 3, listed as benzaldehyde) [µM] | IC50 [6] [µM] | IC50 [7] [µM] | ERK protein level vs control group [8] | Expression level of AKT protein vs control group [9] | Apoptosis-inducing effect on A549 cells [10] | Cell morphology [11]
1 | 3,5-Dibenzylidene-4-piperidone [Benzaldehyde] | 52.4 ± 1.89 | weak at low concentrations | no statistical difference | 5.88 ± 1.44 | 4.66 ± 2.39 | < 5 | 10.3 ± 1.88 | 12.4 ± 2.91 | – | – | – | –
2 | O=C1C(=Cc2cc(Cl)ccc2Cl)CNCC1=Cc1cc(Cl)ccc1Cl [2,5-2Cl] | 48.6 ± 3.59 | – | no statistical difference | 4.72 ± 1.48 | 2.87 ± 2.09 | – | 9.66 ± 1.09 | 6.62 ± 2.1 | significantly lower | most obvious | strongest | most of the cells became round and loose
